Test results published in article doi:10.1101/2020.07.28.225383v1 (biorxiv, 2020).

Legend:
[1] = molecular target: SkMII (skeletal muscle myosin II); experiment: NADH-linked ATPase assay, quadratic […] binding fit; assay type: biochemical
[2] = molecular target: CMII (bovine cardiac myosin II, MYH7) (Bos taurus, UniProt Q9BE39); experiment: as above; assay type: biochemical
Sequence of CMII (bovine cardiac myosin II, MYH7) (Q9BE39 whole entry): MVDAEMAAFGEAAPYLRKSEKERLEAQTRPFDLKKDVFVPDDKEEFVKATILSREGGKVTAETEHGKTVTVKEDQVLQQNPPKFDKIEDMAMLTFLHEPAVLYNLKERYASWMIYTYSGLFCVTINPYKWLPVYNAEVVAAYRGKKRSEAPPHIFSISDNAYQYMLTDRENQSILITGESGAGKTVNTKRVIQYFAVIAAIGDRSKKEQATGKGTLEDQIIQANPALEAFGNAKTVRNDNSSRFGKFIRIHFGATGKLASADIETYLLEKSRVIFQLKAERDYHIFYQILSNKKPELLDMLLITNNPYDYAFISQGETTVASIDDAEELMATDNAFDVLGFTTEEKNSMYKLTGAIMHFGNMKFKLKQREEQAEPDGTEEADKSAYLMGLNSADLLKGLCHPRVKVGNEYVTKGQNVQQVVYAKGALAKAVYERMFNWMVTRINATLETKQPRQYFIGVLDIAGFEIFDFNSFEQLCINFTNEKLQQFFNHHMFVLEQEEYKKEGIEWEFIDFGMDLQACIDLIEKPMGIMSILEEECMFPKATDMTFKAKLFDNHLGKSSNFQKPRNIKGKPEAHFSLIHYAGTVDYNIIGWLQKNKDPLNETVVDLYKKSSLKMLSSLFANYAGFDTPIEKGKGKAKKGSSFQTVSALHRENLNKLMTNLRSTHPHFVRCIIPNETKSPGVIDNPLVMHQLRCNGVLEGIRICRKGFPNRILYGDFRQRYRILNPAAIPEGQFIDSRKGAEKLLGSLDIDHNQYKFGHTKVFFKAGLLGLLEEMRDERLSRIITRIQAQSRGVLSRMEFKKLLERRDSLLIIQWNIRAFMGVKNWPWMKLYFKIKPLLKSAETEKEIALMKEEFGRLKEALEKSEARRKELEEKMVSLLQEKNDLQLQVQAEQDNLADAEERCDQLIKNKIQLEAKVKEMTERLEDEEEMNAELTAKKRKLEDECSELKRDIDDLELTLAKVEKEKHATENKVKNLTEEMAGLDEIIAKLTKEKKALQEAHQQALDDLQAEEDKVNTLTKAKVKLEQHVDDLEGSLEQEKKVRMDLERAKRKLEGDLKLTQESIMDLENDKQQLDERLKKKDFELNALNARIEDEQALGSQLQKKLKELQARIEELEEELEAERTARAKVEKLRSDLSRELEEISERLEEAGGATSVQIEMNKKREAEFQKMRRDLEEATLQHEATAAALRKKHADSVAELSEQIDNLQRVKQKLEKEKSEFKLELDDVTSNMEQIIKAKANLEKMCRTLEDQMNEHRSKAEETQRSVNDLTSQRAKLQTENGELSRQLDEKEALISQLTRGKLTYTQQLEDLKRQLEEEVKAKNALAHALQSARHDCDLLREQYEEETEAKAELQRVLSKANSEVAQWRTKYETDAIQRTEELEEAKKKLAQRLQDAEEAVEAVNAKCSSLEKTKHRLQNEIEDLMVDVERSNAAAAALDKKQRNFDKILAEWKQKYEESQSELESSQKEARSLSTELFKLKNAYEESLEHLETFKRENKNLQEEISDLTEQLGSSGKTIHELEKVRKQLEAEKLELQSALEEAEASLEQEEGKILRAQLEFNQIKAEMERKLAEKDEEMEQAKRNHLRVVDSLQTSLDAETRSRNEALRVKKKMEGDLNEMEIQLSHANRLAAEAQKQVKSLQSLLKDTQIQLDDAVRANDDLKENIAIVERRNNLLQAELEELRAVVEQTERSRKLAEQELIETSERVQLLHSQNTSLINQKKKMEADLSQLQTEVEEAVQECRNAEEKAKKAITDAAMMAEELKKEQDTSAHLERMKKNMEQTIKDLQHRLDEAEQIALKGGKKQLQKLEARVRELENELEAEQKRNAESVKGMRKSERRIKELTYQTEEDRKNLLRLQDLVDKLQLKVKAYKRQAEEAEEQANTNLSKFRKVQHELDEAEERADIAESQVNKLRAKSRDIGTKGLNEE

Ki [1]	Ki [2]	Compound
280 nM	1900 nM	Cc1ccc2c(c1)C(=O)[C@]1(O)CCN(c3ccccc3)C1=N2 [Blebbistatin]
480 nM	83000 nM	Cc1ccc2c(c1)C(=O)[C@]1(O)CCN(c3cnc4nc(C)oc4c3)C1=N2 [Skeletostatin 1, (S)-3a-hydroxy-6-methyl-1-(2-methyloxazolo[4,5-b]pyridin-6-yl)-1,2,3,3a-tetrahydro-4H-pyrrolo[2,3-b]quinolin-4-one]
270 nM	34000 nM	CC(=O)Nc1ccc(N2CC[C@@]3(O)C(=O)c4cc(C)ccc4N=C23)cc1 [Skeletostatin 2, (S)-N-(4-(3a-hydroxy-6-methyl-4-oxo-2,3,3a,4-tetrahydro-1H-pyrrolo[2,3-b]quinolin-1-yl)phenyl)acetamide]
790 nM	> 56000 nM	Cc1ccc2c(c1)C(=O)[C@]1(O)CCN(c3ccc(N4CCOCC4)cc3)C1=N2 [Skeletostatin 3, (S)-3a-hydroxy-6-methyl-1-(4-morpholinophenyl)-1,2,3,3a-tetrahydro-4H-pyrrolo[2,3-b]quinolin-4-one]
